A short description of data set [1]: Cytotoxicity against rat H-ras transformed NRK H/1.2 cells after 5 days. In kind it is cell-based. The conditions noted are these: NRK H/1.2, 120 h, read-out: LC50 (the source's name).
The nature of data set [2]: Differential index, LC50 for rat NRK 52E cells to LC50 for mouse 3LL cells. In kind it is ADME, cell-based. Conditions: NRK 52E cells versus 3LL cells.
The nature of data set [3]: Toxicity in mouse. In kind it is organism-based. Conditions: in vivo.
Data set [4] is described as follows: Cytotoxicity against rat K-ras transformed NRK K/1 cells after 5 days. In kind it is cell-based. Conditions: NRK K/1, 120 h, read-out: LC50 (the source's name).
Data set [5] can be described thus: Differential index, LC50 for rat NRK 52E cells to LC50 for rat N-ras transformed NRK N/4.2 cells. Conditions: NRK 52E cells versus N-ras transformed NRK N/4.2 cells. The format is ADME, cell-based.
Data set [6] in a line: Cytotoxicity against rat N-ras transformed NRK N/4.2 cells after 5 days. The format is cell-based. Conditions: NRK N/4.2, 120 h, read-out: LC50 (the source's name).
A short description of data set [7]: Differential index, LC50 for rat NRK 52E cells to LC50 for rat K-ras transformed NRK K/1 cells. In kind it is ADME, cell-based. The conditions noted are these: NRK 52E cells versus K-ras transformed NRK K/1 cells.
The nature of data set [8]: Cytotoxicity against mouse 3LL cells after 5 days. The format is cell-based. The conditions noted are these: 120 h, read-out: LC50 (the source's name).
Data set [9] in a line: Cytotoxicity against rat NRK 52E cells after 5 days. The conditions noted are these: read-out: LC50. In kind it is cell-based.
Data set [10] deals with Mus musculus. The data set is described as follows: Toxicity in nude mouse at 300 mg/kg/day assessed as death after 8 days. In kind it is organism-based. The conditions noted are these: in vivo, 192 h.
For data set [11], the system named is Mus musculus. Put plainly: Toxicity in nude mouse at 150 mg/kg/day assessed as death after 8 days. The format is organism-based. Conditions: in vivo, 192 h.
For data set [12], the system named is NRK. The data set is described as follows: Inhibition of tumor growth in CD1 nu/nu mouse implanted with rat K-ras transformed NRK K/1 cells at 300 mg/kg/day, ip after 8 days relative to control. In kind it is functional. Conditions: 192 h, route intraperitoneal.
Data set [13] can be described thus: Differential index, LC50 for rat NRK 52E cells to LC50 for rat H-ras transformed NRK H/1.2 cells. The conditions noted are these: NRK 52E cells versus H-ras transformed NRK H/1.2 cells. The format is ADME, cell-based.
Data set [14] has as its system NRK. The data set is described as follows: Inhibition of tumor growth in CD1 nu/nu mouse implanted with rat K-ras transformed NRK K/1 cells at 100 mg/kg/day, ip for 7 days on day 10 relative to control. The conditions noted are these: route intraperitoneal. The format is functional.
Data set [15] deals with Mus musculus. The data set is described as follows: Toxicity in nude mouse at 50 mg/kg/day after 7 days. The format is organism-based. The conditions noted are these: in vivo, 168 h.
For data set [16], the system named is Mus musculus. The data set is described as follows: Toxicity in nude mouse at 10 mg/kg/day after 7 days. The format is organism-based. The conditions noted are these: in vivo, 168 h.
In data set [17] the test system is Mus musculus. The data set is described as follows: Toxicity in nude mouse at 100 mg/kg/day after 7 days. In kind it is organism-based. Conditions: in vivo, 168 h.
For data set [18], the system named is NRK. Put plainly: Inhibition of tumor growth in CD1 nu/nu mouse implanted with rat K-ras transformed NRK K/1 cells at 150 mg/kg/day, ip after 8 days relative to control. The format is functional. The conditions noted are these: 192 h, route intraperitoneal.

16 compounds from ChEMBL document CHEMBL1144487 (Bioorg Med Chem, 2007) can be followed below.

In the case of `CC(=O)NC1=CC(=O)c2ccc(-c3[nH]c(C(N)=O)cc4c5ccccc5nc3-4)nc2C1=O`, the CC50 in [1] came to 0.23 µM; in [4], 0.35 µM; in [6], 0.22 µM; in data set [8], 0.21 µM. Also, the selectivity ratio stood at 4.3 in data set [2], 4.1 in data set [5] and 2.5 in data set [7]. This compound showed an MTD in data set [3] of 400 mg/kg. The CC50 at 120 h in [9] is 0.9 µM.
Regarding `CCCCCCCCOC(=O)c1cc2c([nH]c3ccccc32)c(-c2ccc3c(n2)C(=O)C(NC(C)=O)=CC3=O)n1`, the Activity entry in the data set on Mus musculus [10] and with Mus musculus [11] was “Non-toxic” throughout. For the same compound, the CC50 in data set [1] was 7.6 µM; in data set [4] it was 0.25 µM; in data set [6], 9 µM; in data set [8], over 33 µM. Also, the values for the selectivity ratio in data set [5], in data set [7] and in data set [13] were 3.6, over 132 and over 4.3, respectively. Moreover, the inhibition in vivo at 300 mg/kg/day with NRK [12] worked out at 78%. For the same compound, the CC50 at 120 h in [9] is over 33 µM.
Turning to `COC(=O)c1[nH]c(-c2ccc3c(n2)C(=O)C(NC(C)=O)=CC3=O)c2nc3ccccc3c-2c1C`, the inhibition in vivo at 100 mg/kg/day in the data set on NRK [14] came to 69%. In addition, the CC50 in data set [1] is 0.7 µM; in [4] it was 0.1 µM; in data set [8] it was over 33 µM. Also, the Activity entry in the data set on Mus musculus [15], in the data set on Mus musculus [16] and in the data set on Mus musculus [17] was “Non-toxic” in each case. For the same compound, the selectivity ratio was under 0.03 in data set [2], 9 in data set [7] and 1.3 in [13]. Further, the CC50 at 120 h in data set [9] worked out at 0.9 µM.
For `CC(=O)NC1=CC(=O)c2ccc(-c3nc(C(=O)OCCC(C)C)cc4c3[nH]c3ccccc34)nc2C1=O`, the Activity result in the data set with Mus musculus [10] and in the data set with Mus musculus [11] was “Non-toxic” in each case. Moreover, the CC50 stood at 1.42 µM in data set [1], 0.09 µM in [4], 1.5 µM in data set [6] and 1.69 µM in data set [8]. The selectivity ratio in [2] came out at 1; in [5], 1.1; in data set [7], 18; in [13], 1.1. Further, in the data set on NRK [18], the inhibition in vivo at 150 mg/kg/day turned out to be 88%. Also, in data set [9], the CC50 at 120 h came out at 1.62 µM.
On to `NC1=CC(=O)c2ccc(-c3[nH]ccc4c5ccccc5nc3-4)nc2C1=O` [DECARBOXYDEMETHYLLAVENDAMYCIN], for which the CC50 in data set [1] was 0.11 µM; in data set [4], 0.031 µM; in [6], 0.06 µM; in [8], 0.25 µM. Further, the selectivity ratio in [2] was found to be 0.4; in data set [5], 1.6; in data set [7], 3.2; in data set [13], 0.9. Also, the MTD in data set [3] was 400 mg/kg. Besides, the CC50 at 120 h in data set [9] worked out at 0.1 µM.
Consider `CC(=O)NC1=CC(=O)c2ccc(C)nc2C1=O`, for which the CC50 in data set [1] came out at 4.4 µM; in data set [4] it was 5.9 µM; in data set [8], 2 µM. Also, in [3], the MTD was under 10 mg/kg. Besides, the CC50 at 120 h in [9] was found to be 2.4 µM.
`CCCCOC(=O)c1cc2c([nH]c3ccccc32)c(-c2ccc3c(n2)C(=O)C(NC(=O)C(C)C)=CC3=O)n1`: the CC50 in [1] was found to be 0.61 µM; in [4], 0.4 µM; in data set [6] it was 0.5 µM; in data set [8], 0.9 µM. Moreover, the selectivity ratio in [2] worked out at 1; in data set [5], 1.8; in data set [7], 2.3; in data set [13], 1.5. For the same compound, the CC50 at 120 h in [9] was found to be 0.9 µM.
For the compound `CC(C)CCOC(=O)c1cc2c([nH]c3ccccc32)c(-c2ccc3c(n2)C(=O)C(NC(=O)CCl)=CC3=O)n1`, the CC50 in data set [1] amounted to 1.32 µM; in data set [4], 0.56 µM; in data set [6], 1.2 µM; in [8], 3.2 µM. Moreover, the selectivity ratio in data set [2] was 0.4; in [5], 1.1; in data set [7], 2.4; in [13] it was 1. Further, in data set [9], the CC50 at 120 h came out at 1.35 µM.
With `CCCC(=O)NC1=CC(=O)c2ccc(C=O)nc2C1=O`, the CC50 in data set [1] is 3.3 µM; in data set [4] it was over 3.3 µM; in data set [6] it was over 3.3 µM; in [8], 2.5 µM. In data set [3], this compound came in with an MTD of under 10 mg/kg. In addition, in [9], the CC50 at 120 h stood at 3 µM.
As to `CCCC(=O)NC1=CC(=O)c2ccc(-c3nc(C(=O)OC)cc4c3[nH]c3ccccc34)nc2C1=O`, the CC50 was 0.66 µM in data set [1], 0.5 µM in [4], 0.64 µM in data set [6] and 1.3 µM in data set [8]. Further, the selectivity ratio in data set [2] is 0.5; in data set [5], 1.1; in data set [7], 1.4; in data set [13], 1.1. Further, the CC50 at 120 h in data set [9] amounted to 0.7 µM.
For `CC(=O)NC1=CC(=O)c2ccc(-c3nc(C(=O)OCc4ccccc4)cc4c3[nH]c3ccccc34)nc2C1=O`, the CC50 was over 10 µM in [1], 9.5 µM in [4], over 33 µM in data set [6] and over 33 µM in data set [8]. For the same compound, the selectivity ratio was under 0.3 in data set [2], under 0.3 in data set [5], 1 in [7] and under 0.9 in data set [13]. For the same compound, the CC50 at 120 h in [9] was found to be 9.5 µM.
Turning to `CC(=O)NC1=CC(=O)c2ccc(-c3[nH]c(CO)cc4c5ccccc5nc3-4)nc2C1=O`, the CC50 in data set [1] is 0.2 µM; in [4], 0.2 µM; in data set [6], 0.22 µM; in [8] it was 0.44 µM. In addition, the selectivity ratio in data set [2] was determined as 0.6; in data set [5], 1.1; in data set [7], 1.2; in data set [13], 1.2. The CC50 at 120 h in [9] came to 0.25 µM.
As to `CC(=O)NC1=CC(=O)c2ccc(-c3nc(C(=O)OCCN(C)C)c(C)c4c3[nH]c3ccccc34)nc2C1=O`, the CC50 was found to be 0.09 µM in data set [1], 0.06 µM in data set [4], 0.09 µM in [6] and 0.48 µM in data set [8]. For the same compound, the selectivity ratio in data set [2] was found to be 0.2; in data set [5], 1; in data set [7] it was 1.5; in data set [13], 1. Further, the CC50 at 120 h in [9] amounted to 0.09 µM.
In the case of `CC(=O)NC1=CC(=O)c2ccc(-c3[nH]ccc4c5ccccc5nc3-4)nc2C1=O`, the CC50 in data set [1] was found to be 0.4 µM; in [4] it was 0.44 µM; in [6], 0.49 µM; in data set [8] it was 3 µM. Besides, the selectivity ratio amounted to 0.1 in data set [2], 0.8 in data set [5], 0.9 in data set [7] and 1 in data set [13]. Further, the CC50 at 120 h in data set [9] was determined as 0.4 µM.
As to `CCCC(=O)NC1=CC(=O)c2ccc(C)nc2C1=O`, the CC50 is over 3.3 µM in data set [1], over 3.3 µM in data set [4], over 3.3 µM in data set [6] and 2.5 µM in data set [8]. In data set [3], this compound gave an MTD of under 10 mg/kg. For the same compound, the CC50 at 120 h in data set [9] turned out to be 2 µM.
Regarding `CCCCOC(=O)c1cc2c([nH]c3ccc(F)cc32)c(-c2ccc3c(n2)C(=O)C(NC(C)=O)=CC3=O)n1`, the CC50 is 0.7 µM in data set [1], 0.33 µM in data set [4], 0.84 µM in [6] and 2.1 µM in [8]. The selectivity ratio in data set [2] worked out at 0.3; in [5], 0.8; in data set [7], 1.9; in data set [13], 0.9. Also, in data set [9], the CC50 at 120 h is 0.62 µM.

Broadly, the inhibition in vivo is the drop in the measured response relative to a control, in per cent. A low value points to a weak effect.
